Laboratory results published in article PMC12040169 (PLOS Biology, 2025).

Test: in vitro
Conditions: human, hela cells, % viability

| SMILES | viability at 28.5 h, 10 µM |
| --- | --- |
| Cc1nc(=O)c(-c2ccccc2)c(C)n1-c1ccc(OCC(=O)O)cc1 [CBK286615] | 106% |
| O=C(O)c1ccc(OCC(O)Cn2nnc3ccccc32)cc1 (stereo not drawn) [CBK286616] | 103% |
| CC1CN(C(=O)/C=C/C(=O)O)c2ccccc2NC1=O (stereo not drawn) [CBK286618] | 108% |
| CC(C)C[C@H](NC(=O)NCCN1CCOCC1)C(=O)O [CBK286619] | 99.4% |
| O=C(CC(C(=O)O)c1c[nH]c2ccccc12)c1ccc(Cl)cc1 (stereo not drawn) [CBK286620] | 86.7% |
| O=C(O)c1nccnc1C(=O)N1CCC(O)(c2ccc(Cl)cc2)CC1 [CBK286621] | 87.6% |
| CC(=O)Nc1cc(NC(C)=O)c(C)c(C(=O)O)c1 [CBK286623] | 88.6% |
| O=C(O)C(c1c[nH]c2ccccc12)N1CCN(Cc2ccncc2)CC1 (stereo not drawn) [CBK286624] | 76.2% |
| O=C(O)C1Cc2ccccc2CN1C(=O)c1ccccc1 (stereo not drawn) [CBK286628] | 102% |
| O=C(O)c1ccc2c(c1)c(C(C(=O)O)N1CCCC1)cn2Cc1ccccc1 (stereo not drawn) [CBK286633] | 90.1% |
| COc1ccc(OC)c2c1cc(C(=O)NC[C@H]1CC[C@H](C(=O)O)CC1)n2C [CBK286636] | 86.1% |
| COc1ccc2c(c1)c(C(C(=O)O)N1CCN(c3ccccn3)CC1)cn2CC(=O)O (stereo not drawn) [CBK286637] | 98% |
| O=C(O)CCNc1cc2ccccc2cc1C(=O)O [CBK286640] | 80.7% |
| COc1cccc(C2=NO[C@@](CC(=O)O)(C(=O)NCc3ccccc3)C2)c1OC [CBK286641] | 83.4% |
| CC(C)C(=O)Nc1ccc2[nH]cc(C(C(=O)O)N3CCN(c4ccccc4)CC3)c2c1 (stereo not drawn) [CBK286645] | 85.7% |
| Nc1cc(S(=O)(=O)C(F)(F)F)ccc1C(=O)O [CBK286646] | 87% |
| CCCCC(NC(=O)c1cc2ccccc2[nH]1)C(=O)O (stereo not drawn) [CBK286647] | 85.9% |
| O=C(CC(CN1CCN(c2ccccn2)CC1)C(=O)O)NCc1ccccc1 (stereo not drawn) [CBK286649] | 89% |
| O=C(O)COc1ccc(/C=C/c2nc3n(n2)C=COc2ccccc2-3)cc1 [CBK286650] | 80.2% |
| O=C(O)Cc1nnc(CNc2ccc(Cl)cc2)[nH]1 [CBK286651] | 81.7% |
| CN1CCN(C(C(=O)O)c2c[nH]c3cc(OCc4ccccc4)ccc23)CC1 (stereo not drawn) [CBK286654] | 84.6% |
| CC(C)C[C@H](NC(=O)COc1ccc2nc3n(c(=O)c2c1)CCCCC3)C(=O)O [CBK286656] | 88.3% |

| SMILES | viability at 28.5 h, 10 µM |
| --- | --- |
| CCOc1ccc(C(=O)CCNCC(=O)O)cc1 [CBK286657] | 94.4% |
| O=C(O)/C=C/C(=O)N(Cc1ccccn1)Cc1ccco1 [CBK286660] | 84.2% |
| Cc1nn(Cc2ccc(Cl)cc2)c(C)c1C(N)C(=O)O (stereo not drawn) [CBK286661] | 89.7% |
| CC(=O)c1ccc(NC(=O)[C@@]2(CC(=O)O)CC(c3ccc(F)cc3)=NO2)cc1 [CBK286663] | 85% |
| O=C(O)C(c1c[nH]c2ccccc12)N1CCc2ccccc2C1 (stereo not drawn) [CBK286664] | 84.5% |
| O=C(CCn1ccc2ccc(F)cc21)NC[C@H]1CC[C@H](C(=O)O)CC1 [CBK286666] | 86.2% |
| C=C(C)CN1CCN(C(C(=O)O)c2c[nH]c3ccc(OCc4ccccc4)cc23)CC1 (stereo not drawn) [CBK286668] | 80.6% |
| CC(C)C(NC(=O)N1c2ccccc2NC(=O)C1C(C)C)C(=O)O (stereo not drawn) [CBK286670] | 100% |
| O=C(COc1ccc(Br)cc1C(=O)O)Nc1ccc(F)cc1 [CBK286671] | 92% |
| O=C(O)CC1(O)C(=O)N(Cc2ccccc2)c2ccccc21 (stereo not drawn) [CBK286673] | 104% |
| Cc1c(CC(=O)O)c(=O)oc2cc(OCc3ccc(F)cc3)ccc12 [CBK286674] | 103% |
| COc1ccc2[nH]cc(C(C(=O)O)N3CCCCC3)c2c1 (stereo not drawn) [CBK286676] | 85.3% |
| CCOc1ccc(Cc2nnnn2CC(=O)O)cc1 [CBK286677] | 91.2% |
| Cc1ccc(C)c(NC(=O)N[C@@H](CC(C)C)C(=O)O)c1 [CBK286678] | 89% |
| O=C(O)CCC(=O)NCC1(c2ccccc2)CCCC1 [CBK286679] | 89.7% |
| CC(=O)N1CCN(C(C(=O)O)c2c[nH]c3cc(NC(=O)c4ccccc4)ccc23)CC1 (stereo not drawn) [CBK286680] | 84.9% |
| CN(C)S(=O)(=O)N1CCC(C(=O)O)(c2ccccc2)CC1 [CBK286681] | 90.3% |
| O=C(O)C1CCN(C(=O)CCN2C(=O)[C@@H]3Cc4ccccc4CN3C2=O)CC1 [CBK286682] | 88.2% |
| O=C(O)c1ccccc1SC1CCc2ccccc2NC1=O (stereo not drawn) [CBK286683] | 83.1% |
| O=C(O)c1ccc(S(=O)(=O)N(CC2CC=CCC2)CC2CCCO2)cc1 (stereo not drawn) [CBK286685] | 101% |
| O=C(O)C(c1c[nH]c2ccc(OCc3ccccc3)cc12)N1CCCC1 (stereo not drawn) [CBK286686] | 97.6% |
| COc1ccc2c(ccn2CC(=O)NC[C@H]2CC[C@H](C(=O)O)CC2)c1 [CBK286687] | 110% |

| SMILES | viability at 28.5 h, 10 µM |
| --- | --- |
| CCOC(=O)N1CCN(C(C(=O)O)c2c[nH]c3cc(OCc4ccccc4)ccc23)CC1 (stereo not drawn) [CBK286689] | 97% |
| O=C(CNC(=O)c1ccccc1C(=O)O)Nc1ccccc1 [CBK286690] | 94.1% |
| COc1ccccc1N1CCN(c2ccc([N+](=O)[O-])cc2C(=O)O)CC1 [CBK286692] | 96.3% |
| CCOc1ccc2c(c1)C(=O)c1cc(OCC(=O)O)ccc1-2 [CBK286693] | 94.3% |
| CCNC(=O)CN1CCN(C(C(=O)O)c2c[nH]c3ccc(C)cc23)CC1 (stereo not drawn) [CBK286694] | 98% |
| CN1CCN(C(C(=O)O)c2cn(CCC(=O)O)c3ccc(Br)cc23)CC1 (stereo not drawn) [CBK286698] | 103% |
| COc1ccc(C(CNC(=O)C2C(C(=O)O)C2(C)C)N(C)C)cc1 (stereo not drawn) [CBK286700] | 110% |
| COc1cccc(N2CCN(C(C(=O)O)c3cn(C)c4cc(C(=O)O)ccc34)CC2)c1 (stereo not drawn) [CBK286701] | 114% |
| O=C(O)C[C@H](CNC(=O)COc1ccc2ccc(=O)oc2c1)c1ccc(Cl)cc1 [CBK286702] | 113% |
| COc1ccc(-c2nc3c(c(SCC(=O)O)n2)COC(C)(C)C3)cc1 [CBK286704] | 107% |
| O=C(O)C(Cc1c[nH]cn1)N1C(=O)C2C3C=CC(C3)C2C1=O (stereo not drawn) [CBK286705] | 88% |
| Cc1ccc(S(=O)(=O)NC[C@H]2CC[C@H](C(=O)O)CC2)cc1 [CBK286706] | 96.1% |
| O=C(O)CCCCCNc1ccc(C(F)(F)F)cc1[N+](=O)[O-] [CBK286707] | 83.3% |
| O=C(N[C@@H](Cc1ccccc1)C(=O)O)c1cccc2c1-c1ccccc1C2=O [CBK286710] | 92.1% |
| CCn1cc(C(=O)N2CCC(C(=O)O)CC2)c(=O)c2cc3c(cc21)OCO3 [CBK286713] | 111% |
| O=C(O)CNC(=O)[C@H]1CC[C@H](Cn2cnc3ccccc3c2=O)CC1 [CBK286714] | 97% |
| O=C(O)C[C@]1(C(=O)NC2CCCCCC2)CC(c2ccc(Cl)cc2)=NO1 [CBK286716] | 92.3% |
| CCN1CCN(C(=O)c2nccnc2C(=O)O)CC1 [CBK286718] | 88.8% |
| CC(C)(C)OC(=O)N[C@@H](Cc1ccccc1)C(=O)NC[C@H]1CC[C@H](C(=O)O)CC1 [CBK286719] | 81.9% |
| CC(C)CCNC(=O)CC(=O)Nc1ccc(C(=O)O)cc1 [CBK286721] | 85.5% |
| CC(C)[C@H](NC(=O)C1CC(=O)N(c2ccc(F)cc2)C1)C(=O)N1CCCC1C(=O)O (stereo partly drawn) [CBK286723] | 95% |
| O=C(O)c1ccc(CSc2nnnn2-c2ccccc2)cc1 [CBK286726] | 85.1% |

| SMILES | viability at 28.5 h, 10 µM |
| --- | --- |
| COc1ccc2c(C)c(CCC(=O)N(C)CC(=O)O)c(=O)oc2c1 [CBK286731] | 87% |
| C[C@H](NC(=O)C1CC(=O)N(c2ccc(F)cc2)C1)C(=O)N1CCC(C(=O)O)CC1 (stereo partly drawn) [CBK286733] | 79.7% |
| Cc1nn(-c2ccc(C(=O)O)cc2)c2c1C(=O)CC(C)(C)C2 [CBK286734] | 86.4% |
| O=C(O)[C@@H]1CC(O)CN1C(=O)c1ccc2noc(-c3ccccc3)c2c1 (stereo partly drawn) [CBK286736] | 86.1% |
| CC1(C(=O)O)COC(c2ccc([N+](=O)[O-])cc2)OC1 (stereo not drawn) [CBK286737] | 87.1% |
| Cc1ccc(N2CCCn3c2nc2c3c(=O)n(CC(=O)O)c(=O)n2C)cc1 [CBK286740] | 90.5% |
| C[C@H](NC(=O)OC(C)(C)C)C(=O)NC[C@H]1CC[C@H](C(=O)O)CC1 [CBK286741] | 98.7% |
| O=C(O)c1cccc(OCc2nnnn2-c2ccc(Br)cc2)c1 [CBK286744] | 82.7% |
| O=C(O)C1CCC(CNC(=O)C2Cc3ccccc3CN2)CC1 (stereo not drawn) [CBK286745] | 84.6% |
| O=C(CCN1C(=O)[C@@H]2Cc3ccccc3CN2C1=O)N[C@H](C(=O)O)c1ccccc1 [CBK286751] | 88.7% |
| O=C(O)CCCC(=O)N1N=C(c2ccccc2)CC1c1ccc2nccnc2c1 (stereo not drawn) [CBK286752] | 89.4% |
| O=C(O)C1CCCN(C(=O)COc2cc3oc(=O)cc(-c4ccccc4)c3cc2Cl)C1 (stereo not drawn) [CBK286753] | 90.9% |
| CC(=O)NC(CSc1cc(C)nc2ccccc12)C(=O)O (stereo not drawn) [CBK286755] | 87.4% |
| O=C(Cc1ccccc1C(=O)O)Nc1ccc(-n2cncn2)c(Cl)c1 [CBK286756] | 85.7% |
| CCCC(CCC(=O)Nc1ccccc1Cl)C(=O)O (stereo not drawn) [CBK286757] | 120% |
| CC(=O)N1CCC2(CC1)NC(=O)N(c1ccc(C(=O)O)cc1)N2 [CBK286758] | 103% |
| CC(C)C[C@@H](C(=O)N1CCC(C(=O)O)CC1)n1c(=O)[nH]c2ccccc2c1=O [CBK286762] | 88.5% |
| CC(=O)C1=C(O)C(=O)N(CCC(=O)O)C1c1ccccc1 (stereo not drawn) [CBK286763] | 84.3% |
| COc1ccccc1N1CCN(CC(CC(=O)Nc2ccccc2)C(=O)O)CC1 (stereo not drawn) [CBK286766] | 88.6% |
| O=C(Cc1c[nH]c2ccccc12)NC(Cc1ccccc1)C(=O)O (stereo not drawn) [CBK286770] | 120% |
| COc1cc2oc(=O)c(CC(=O)N[C@@H](CC(C)C)C(=O)O)c(C)c2cc1Cl [CBK286772] | 104% |
